As usually defined, the IC50 is the concentration that gives 50% inhibition.

The text below walks through data of patent US12215112B2, “CD151 inhibitors” (ESFAM BIOTECH PTY LTD, priority 2020, dated 2025).

In the assay the test system is PC3 cells. Nature of the assay: xCELLigence RTCA real-time cell invasion assay (CIM plate, Matrigel) on PC3 prostate cancer cells. It counts as cell-based. The settings on record: Homo sapiens, PC-3, compound 25 uM to 1 uM, cell index monitored for 72 hours, four-parameter dose-response curve, read-out: IC50, Effect of compounds on the invention on prostate cancer cells. The procedure: The media antibiotics and serum were purchased from Invitrogen (Life Technologies). PC3 cells were purchased from ATCC (Granville, NSW, Australia). PC3 cells were expanded in cell culture T75 flasks with vented cap and then preserved in low passage number. The medium used for PC3 cells was RPMI (GlutaMAX) supplemented with 10% FCS and 1% penicillin/streptomycin (culture media). The cells were maintained at 37° C. in a humidified 95% (v/v) air/5% (v/v) CO2 environment and were grown up to 80% confluence.
XCELLigence® real-time cell analysis (RTCA) instrument (ACEA Biosciences), 16-well ACEA CIM-Plates, 16-well ACEA E-Plat and assembly tool were purchased from ELITechGroup empowering IVD (Braeside, Australia). The Matrigel was purchased from Corning (Australia).
To measure cell invasion under compound treatment the upper chamber of the CIM plate was coated with 5% Matrigel diluted in SF RPMI (20 μl) and incubated in a 37° C. tissue culture incubator for four hours. Using the assembly tool to support the chambers the lower chamber was filled with (160 μl) of culture media containing the compound in specific concertation from 25 uM to 1 uM and two controls (DMSO 0.1% and ESFAM 4C 10 uM) (see the schematic in FIG. 1). Once the upper chamber was placed on the top of the lower chamber it was loaded with (40 μl) serum-free (SF) RPMI containing the compound as previously stated. After one hour calibration in 37° C., plates were placed into the xCELLigence station, and the base-line electric impedance was measured to confirm that all wells and connections were working properly. In case of connection problem, the software automatically informs the researcher about the nature of the problem in the message section. Subsequently cells were trypsinized and upon harvesting and counting they were diluted in SF RPMI to desired density (3×10^4) and seeded (100 μl) in the wells. After 30 minutes of incubation in room-temperature to allow cell attachment the plates were loaded in the xCELLigence RTCA DP machine. The cell invasion was monitored in real-time for the duration of 72 hours. […]
The xCELLigence system automatically monitored the electrical impedance value of each well and expressed as a cell index (CI) value for the duration of 72 hours. The data for treatments was automatically grouped as the mean±standard deviation. The software version used in these experiments is 1.2.1. The electronic record of the experimental data is automatically saved in file that cannot be altered or changed by the researcher.
Statistical analysis was performed using Microsoft® Office EXCEL and GraphPad Prism 7. The IC50 was calculated from the four-parameter dose-response curve (log(inhibitor) vs. response-variable slopes). Where the row-data was inserted in GraphPad Prism 7 (Dose response x-log(dose)) and analysed for XY nonlinear regression (curve fit), dose response-inhibition, log(inhibitor) vs response variable slope (four parameters). For the IC90 calculation the log(IC50)=log(IC90)-(1/HillSlope)*log(9) equation was used in EXCEL based on the raw data extracted from xCELLigence system and the dose-response curve.
For the compound `CN(Cc1ccc(C(F)(F)F)cc1)c1cc(-c2cn[nH]c2)n2nc(C(=O)Nc3ccc(Cl)cc3)cc2n1` [Compound 41, N-(4-chlorophenyl)-5-(methyl(4-(trifluoromethyl)benzyl)amino)-7-(1H-pyrazol-4-yl)pyrazolo[1,5-a]pyrimidine-2-carboxamide], the IC50 amounted to 9.86 µM.
The figure for `CN(Cc1cccc(C(F)(F)F)c1)c1cc(-c2cn[nH]c2)n2nc(C(=O)Nc3ccc(Cl)cc3)cc2n1` [Compound 42, N-(4-chlorophenyl)-5-(methyl(3-(trifluoromethyl)benzyl)amino)-7-(1H-pyrazol-4-yl)pyrazolo[1,5-a]pyrimidine-2-carboxamide] is 2.86 µM; for `CN(Cc1ccccc1C(F)(F)F)c1cc(-c2cn[nH]c2)n2nc(C(=O)Nc3ccc(Cl)cc3)cc2n1` [Compound 43, N-(4-chlorophenyl)-5-(methyl(2-(trifluoromethyl)benzyl)amino)-7-(1H-pyrazol-4-yl)pyrazolo[1,5-a]pyrimidine-2-carboxamide] it is 6.09 µM; for `CN(Cc1ccc(Cl)cc1)c1cc(-c2cn[nH]c2)n2nc(C(=O)Nc3ccc(Cl)cc3)cc2n1` [Compound 44, 5-((4-chlorobenzyl)(methyl)amino)-N-(4-chlorophenyl)-7-(1H-pyrazol-4-yl)pyrazolo[1,5-a]pyrimidine-2-carboxamide] it is 12.2 µM.
Next, `CN(Cc1cccc(Cl)c1)c1cc(-c2cn[nH]c2)n2nc(C(=O)Nc3ccc(Cl)cc3)cc2n1` [Compound 45, 5-((3-chlorobenzyl)(methyl)amino)-N-(4-chlorophenyl)-7-(1H-pyrazol-4-yl)pyrazolo[1,5-a]pyrimidine-2-carboxamide]: 10.8 µM.
Next, `CN(Cc1ccccc1Cl)c1cc(-c2cn[nH]c2)n2nc(C(=O)Nc3ccc(Cl)cc3)cc2n1` [Compound 46, 5-((2-chlorobenzyl)(methyl)amino)-N-(4-chlorophenyl)-7-(1H-pyrazol-4-yl)pyrazolo[1,5-a]pyrimidine-2-carboxamide]: 7 µM; `O=C(Nc1cccc(N2CCOCC2)c1)c1cc2nc(N3Cc4ccccc4C3)cc(-c3cn[nH]c3)n2n1` [Compound 47, 5-(isoindolin-2-yl)-N-(3-morpholinophenyl)-7-(1H-pyrazol-4-yl)pyrazolo[1,5-a]pyrimidine-2-carboxamide]: 6.18 µM.
As for `CN1CCN(c2cccc(NC(=O)c3cc4nc(N5Cc6ccccc6C5)cc(-c5cn[nH]c5)n4n3)c2)CC1` [Compound 48, 5-(isoindolin-2-yl)-N-(3-(4-methylpiperazin-1-yl)phenyl)-7-(1H-pyrazol-4-yl)pyrazolo[1,5-a]pyrimidine-2-carboxamide], the IC50 was 2.77 µM.
Next, `CC(=O)N1CCN(c2cccc(NC(=O)c3cc4nc(N5Cc6ccccc6C5)cc(-c5cn[nH]c5)n4n3)c2)CC1` [Compound 49, N-(3-(4-acetylpiperazin-1-yl)phenyl)-5-(isoindolin-2-yl)-7-(1H-pyrazol-4-yl)pyrazolo[1,5-a]pyrimidine-2-carboxamide]: 5.85 µM.
For the compound `O=C(Nc1cccc(OC2CCC2)c1)c1cc2nc(N3Cc4ccccc4C3)cc(-c3cn[nH]c3)n2n1` [Compound 50, N-(3-cyclobutoxyphenyl)-5-(isoindolin-2-yl)-7-(1H-pyrazol-4-yl)pyrazolo[1,5-a]pyrimidine-2-carboxamide], the IC50 was determined as 1.46 µM.
Next, `COc1cc(NC(=O)c2cc3nc(N4Cc5ccccc5C4)cc(-c4cn[nH]c4)n3n2)cc(OC)c1` [Compound 51, N-(3,5-dimethoxyphenyl)-5-(isoindolin-2-yl)-7-(1H-pyrazol-4-yl)pyrazolo[1,5-a]pyrimidine-2-carboxamide]: 3.55 µM; `COc1cc(Cl)cc(NC(=O)c2cc3nc(N4Cc5ccccc5C4)cc(-c4cn[nH]c4)n3n2)c1` [Compound 52, N-(3-chloro-5-methoxyphenyl)-5-(isoindolin-2-yl)-7-(1H-pyrazol-4-yl)pyrazolo[1,5-a]pyrimidine-2-carboxamide]: 5.52 µM.
Regarding `COc1cc(NC(=O)c2cc3nc(N4Cc5ccccc5C4)cc(-c4cn[nH]c4)n3n2)ccc1Cl` [Compound 53, N-(4-chloro-3-methoxyphenyl)-5-(isoindolin-2-yl)-7-(1H-pyrazol-4-yl)pyrazolo[1,5-a]pyrimidine-2-carboxamide], the IC50 is 2.76 µM.
Consider `COc1ccc(NC(=O)c2cc3nc(N4Cc5ccccc5C4)cc(-c4cn[nH]c4)n3n2)cc1` [Compound 54, 5-(isoindolin-2-yl)-N-(4-methoxyphenyl)-7-(1H-pyrazol-4-yl)pyrazolo[1,5-a]pyrimidine-2-carboxamide], for which the IC50 stood at 1.65 µM.
Next, `CCOc1ccc(NC(=O)c2cc3nc(N4Cc5ccccc5C4)cc(-c4cn[nH]c4)n3n2)cc1` [Compound 55, N-(4-ethoxyphenyl)-5-(isoindolin-2-yl)-7-(1H-pyrazol-4-yl)pyrazolo[1,5-a]pyrimidine-2-carboxamide]: 7.86 µM; `CC(C)Oc1ccc(NC(=O)c2cc3nc(N4Cc5ccccc5C4)cc(-c4cn[nH]c4)n3n2)cc1` [Compound 56, 5-(isoindolin-2-yl)-N-(4-isopropoxyphenyl)-7-(1H-pyrazol-4-yl)pyrazolo[1,5-a]pyrimidine-2-carboxamide]: 2.83 µM; `COc1cccc(NC(=O)c2cc3nc(N4Cc5ccccc5C4)cc(-c4cnn(C)c4)n3n2)c1` [Compound 57, 5-(isoindolin-2-yl)-N-(3-methoxyphenyl)-7-(1-methyl-1H-pyrazol-4-yl)pyrazolo[1,5-a]pyrimidine-2-carboxamide]: 2.59 µM.
On to `Cn1cc(-c2cc(N3Cc4ccccc4C3)nc3cc(C(=O)Nc4cccc(O)c4)nn23)cn1` [Compound 58, N-(3-hydroxyphenyl)-5-(isoindolin-2-yl)-7-(1-methyl-1H-pyrazol-4-yl)pyrazolo[1,5-a]pyrimidine-2-carboxamide], for which the IC50 stood at 10.1 µM.
In the case of `COc1cccc(NC(=O)c2cc3nc(N4Cc5ccccc5C4)cc(-c4c(C)nn(C)c4C)n3n2)c1` [Compound 59, 5-(isoindolin-2-yl)-N-(3-methoxyphenyl)-7-(1,3,5-trimethyl-1H-pyrazol-4-yl)pyrazolo[1,5-a]pyrimidine-2-carboxamide], the IC50 turned out to be 4.38 µM.
The figure for `Cc1nn(C)c(C)c1-c1cc(N2Cc3ccccc3C2)nc2cc(C(=O)Nc3cccc(O)c3)nn12` [Compound 60, N-(3-hydroxyphenyl)-5-(isoindolin-2-yl)-7-(1,3,5-trimethyl-1H-pyrazol-4-yl)pyrazolo[1,5-a]pyrimidine-2-carboxamide] is 7.39 µM; for `COc1cccc(NC(=O)c2cc3nc(N4Cc5ccc(Cl)cc5C4)cc(-c4cn[nH]c4)n3n2)c1` [Compound 61, 5-(5-chloroisoindolin-2-yl)-N-(3-methoxyphenyl)-7-(1H-pyrazol-4-yl)pyrazolo[1,5-a]pyrimidine-2-carboxamide] it is 3.68 µM; for `O=C(Nc1cccc(O)c1)c1cc2nc(N3Cc4ccc(Cl)cc4C3)cc(-c3cn[nH]c3)n2n1` [Compound 62, 5-(5-chloroisoindolin-2-yl)-N-(3-hydroxyphenyl)-7-(1H-pyrazol-4-yl)pyrazolo[1,5-a]pyrimidine-2-carboxamide] it is 5.22 µM.
Next, `COc1cccc(NC(=O)c2cc3nc(N4Cc5ccc(F)cc5C4)cc(-c4cn[nH]c4)n3n2)c1` [Compound 63, 5-(5-fluoroisoindolin-2-yl)-N-(3-methoxyphenyl)-7-(1H-pyrazol-4-yl)pyrazolo[1,5-a]pyrimidine-2-carboxamide]: 4.65 µM.
